This passage reports GI50 and TGI results from PubChem BioAssay (NCI).

Among the test systems are SR leukemia; SK-OV-3 ovarian; M14 melanoma; HCT-116 colon; SF-539 CNS; OVCAR-4 ovarian; OVCAR-5 ovarian; DU-145 prostate; NCI-H460 lung; MCF7 breast.
Common to all, as to experiment: NCI-60 cell line screen, 48 h

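How tested: cells in 96-well plates exposed to compound for 48 hours at five concentrations. GI50 is the concentration that inhibits growth by half. TGI: concentration producing complete growth inhibition.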 Bounds are passed on as bounds.

`CO/C=C/C(=O)c1cc2cnc3c(=N)cc(NC(=O)C(C)C)c([nH]1)c23`: the GI50 in the assay on SR leukemia is 0.0489 µM; in the assay with SK-OV-3 ovarian, 0.146 µM; with M14 melanoma, 0.0703 µM; in the assay on HCT-116 colon, 0.0585 µM; in the assay on SF-539 CNS, 0.0596 µM; with OVCAR-4 ovarian, 0.0637 µM. The GI50 in the assay with OVCAR-5 ovarian is 0.12 µM; in the assay on DU-145 prostate it was 0.0864 µM; in the assay with NCI-H460 lung, 0.323 µM; with MCF7 breast, 0.0182 µM. Moreover, the TGI worked out at 0.427 µM with SR leukemia; 0.873 µM in the assay on SK-OV-3 ovarian; 0.529 µM in the assay on M14 melanoma; 0.282 µM in the assay on HCT-116 colon; 0.333 µM in the assay on SF-539 CNS; 0.746 µM in the assay on OVCAR-4 ovarian. The TGI with OVCAR-5 ovarian was found to be 7.41 µM; with DU-145 prostate, 6.35 µM; with NCI-H460 lung, 11.4 µM; in the assay on MCF7 breast it was 1.25 µM.

In the case of `Nc1ccccc1NC(=O)c1ccc(CNc2nccc(-c3cccnc3)n2)cc1`, the GI50 in the assay with SR leukemia was 0.268 µM; in the assay with SK-OV-3 ovarian, 1.37 µM; in the assay with M14 melanoma, 1.03 µM; with HCT-116 colon, 0.362 µM; with SF-539 CNS it was 0.805 µM; in the assay on OVCAR-4 ovarian it was 1.43 µM. The GI50 is 0.55 µM with OVCAR-5 ovarian, 1.45 µM in the assay with DU-145 prostate, 1.15 µM in the assay on NCI-H460 lung and 0.716 µM in the assay with MCF7 breast. Further, the TGI was above 28.7 µM in the assay with SK-OV-3 ovarian; 4.18 µM in the assay with M14 melanoma; above 100 µM with HCT-116 colon; 13.1 µM in the assay on SF-539 CNS; above 28.3 µM with OVCAR-4 ovarian; above 48 µM in the assay with OVCAR-5 ovarian. Besides, the TGI in the assay on DU-145 prostate was above 100 µM; in the assay with NCI-H460 lung it was 97 µM; with MCF7 breast it was above 43.3 µM.

Consider `CN1CCC(COc2cnc(-c3cccc(Cn4nc(-c5cccc(C#N)c5)ccc4=O)c3)nc2)CC1`, for which the GI50 in the assay with SR leukemia was 2.08 µM; in the assay with SK-OV-3 ovarian it was 5.93 µM; in the assay with M14 melanoma, 1.96 µM; with HCT-116 colon, 2.41 µM; in the assay on SF-539 CNS it was 1.7 µM; in the assay with OVCAR-4 ovarian, 2 µM. The GI50 with OVCAR-5 ovarian was 7.69 µM; with DU-145 prostate, 4.76 µM; in the assay on NCI-H460 lung it was 3.58 µM; in the assay on MCF7 breast it was 3.46 µM. Further, the TGI with SR leukemia came out at 4.49 µM; with SK-OV-3 ovarian it was 18.5 µM; with M14 melanoma it was 3.64 µM; with HCT-116 colon, 6.35 µM; in the assay with SF-539 CNS, 3.3 µM; in the assay with OVCAR-4 ovarian it was 5.32 µM. For the same molecule, the TGI with OVCAR-5 ovarian was found to be 27.5 µM; with DU-145 prostate, 30.5 µM; with NCI-H460 lung it was 12.3 µM; with MCF7 breast, 14.9 µM.

As for `Cc1cccc(-c2[nH]ncc2-c2ccc3ncccc3n2)n1`, the GI50 in the assay with SR leukemia was 9.2 µM; with SK-OV-3 ovarian it was above 21.9 µM; with M14 melanoma, 10.8 µM; with HCT-116 colon, 7.78 µM; in the assay on SF-539 CNS, 17.4 µM; in the assay with OVCAR-4 ovarian, above 22.4 µM. Further, the GI50 was 9.82 µM in the assay on OVCAR-5 ovarian, 12.8 µM in the assay with DU-145 prostate, 8.76 µM in the assay with NCI-H460 lung and 8.48 µM in the assay with MCF7 breast. Besides, the TGI with SR leukemia, in the assay on SK-OV-3 ovarian, in the assay on M14 melanoma, in the assay with HCT-116 colon, with SF-539 CNS and in the assay with OVCAR-4 ovarian was above 25 µM in each case. Also, the TGI with OVCAR-5 ovarian, in the assay on DU-145 prostate, with NCI-H460 lung and with MCF7 breast was above 25 µM each time.

As for `CN(C)c1ccc(/C=C/c2ccnc3c(O)cccc23)cc1`, the GI50 is 0.321 µM in the assay with SR leukemia; 0.461 µM in the assay with SK-OV-3 ovarian; 0.304 µM in the assay with M14 melanoma; 0.401 µM with HCT-116 colon; 0.344 µM with SF-539 CNS; 0.404 µM in the assay on OVCAR-4 ovarian. Moreover, the GI50 in the assay on OVCAR-5 ovarian is 6.66 µM; with DU-145 prostate, 0.626 µM; with NCI-H460 lung, 0.363 µM; with MCF7 breast it was 0.371 µM. In addition, the TGI in the assay with SR leukemia is above 100 µM; with SK-OV-3 ovarian, above 100 µM; in the assay with M14 melanoma, 1.58 µM; in the assay with HCT-116 colon it was above 100 µM; in the assay with SF-539 CNS, 3.33 µM; with OVCAR-4 ovarian it was above 100 µM. Further, the TGI with OVCAR-5 ovarian, in the assay on DU-145 prostate, in the assay with NCI-H460 lung and in the assay with MCF7 breast was above 100 µM throughout.

As for `CC(C)(C)N1CCC1CN` (centres undefined), the GI50 in the assay on SR leukemia, with SK-OV-3 ovarian, with M14 melanoma, with HCT-116 colon, in the assay with SF-539 CNS and in the assay on OVCAR-4 ovarian was above 100 µM in each case. Moreover, the GI50 in the assay on OVCAR-5 ovarian, in the assay on DU-145 prostate, with NCI-H460 lung and with MCF7 breast was above 100 µM each time. Further, the TGI in the assay on SR leukemia, in the assay on SK-OV-3 ovarian, in the assay on M14 melanoma, with HCT-116 colon, in the assay on SF-539 CNS and in the assay on OVCAR-4 ovarian was above 100 µM in each case. The TGI with OVCAR-5 ovarian, with DU-145 prostate, in the assay on NCI-H460 lung and with MCF7 breast was above 100 µM throughout.
